# Laboratory results: patent US7163928B2 (CV Therapeutics, Inc., priority 2003, dated 2007)
# Several values for one entry are separate records, joined by “and”; a condition that tells them apart may be missing. Equal entries are not always repeated.
# Target: T1, A1 adenosine receptor (Mesocricetus auratus, UniProt A0A1U8BVR4)
# T1 construct: A1 adenosine receptor sites on the membranes of DDT cells; endogenous in cells; host or cells: DDT1 cells (hamster vas deferens smooth muscle cell line), membrane preparation
# T1 sequence (A0A1U8BVR4 1-326): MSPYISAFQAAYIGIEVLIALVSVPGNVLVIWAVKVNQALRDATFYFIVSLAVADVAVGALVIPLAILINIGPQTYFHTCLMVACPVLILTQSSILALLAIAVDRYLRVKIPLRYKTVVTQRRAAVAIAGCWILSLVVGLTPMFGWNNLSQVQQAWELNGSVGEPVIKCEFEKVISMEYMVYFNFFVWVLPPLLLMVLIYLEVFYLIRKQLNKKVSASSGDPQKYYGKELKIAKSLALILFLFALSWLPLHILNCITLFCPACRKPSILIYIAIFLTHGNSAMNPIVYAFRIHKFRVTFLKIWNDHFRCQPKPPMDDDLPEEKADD
# Assay: Competitive binding assay, DDT cell membranes, 3H-CPX
# Design: species or system hamster
# Settings: 1.5 nM 3H-CPX, 10 μM GTP-γS, 23° C. 90 minutes, read-out: Ki (low)
# Description: DDT cells (hamster vas deferens smooth muscle cell line) were grown as monolayers in petri dishes using Dulbecco's Modified Eagle's Medium (DMEM) containing 2.5 μg mL^−1 amphotericin B, 100 U mL^−1 penicillin G, 0.1 mg mL^−1 streptomycin sulfate and 5% fetal bovine serum in a humidified atmosphere of 95% air and 5% CO2. Cells were subcultured twice weekly by dispersion in Hank's Balanced Salt Solution (HBSS) without the divalent cations and containing 1 mM EDTA. The cells were then seeded in growth medium at a density of 1.2×10^5 cells per plate and experiments were performed 4 days later at approximately one day preconfluence.
# Attached cells were washed twice with HBSS (2×10 mL), scraped free of the plate with the aid of a rubber policeman in 5 mL of 50 mM Tris-HCl buffer pH 7.4 at 4° C. and the suspension homogenized for 10 s. The suspension was then centrifuged at 27,000×g for 10 min. The pellet was resuspended in homogenization buffer by vortexing and centrifuged as described above. The final pellet was resuspended in 1 vol of 50 mM Tris-HCl buffer pH 7.4 containing 5 mM MgCl2 for A1 adenosine receptor assays. For the [^35S]GTPγS binding assay the final pellet was resuspended in 50 mM Tris-HCl pH 7.4 containing 5 mM MgCl2, 100 mM NaCl and 1 mM dithiothreitol. This membrane suspension was then placed in liquid nitrogen for 10 min, thawed and used for assays. The protein content was determined with a Bradford™ Assay Kit using bovine serum albumin as standard.
# Compounds of Formula I were assayed to determine their affinity for the A1 adenosine receptor sites on the membranes of DDT cells. Briefly, 50–70 ug of membrane protein were incubated in a mixture containing 2 U/ml adenosine deaminase, 10 μM GTP-γS in 5 mM HE buffer containing 5 mM MgCl2 in glass tubes Stock solutions of the compounds of the invention were serially diluted (10^−10M to 10^−4M) in HE buffer or HE buffer alone (to determine total binding) and added to the incubation mixture. Finally, tritiated […] (^3H-CPX) was added to a final concentration of 1.5 nM. After incubation at 23° C. 90 minutes, the reaction was stopped by filtration on a Brandel MR24 cell harvester and washing with ice-cold Tris-EDTA buffer (three times, approximate volume 10 ml/wash) over Whatman GF/B filters (presoaked for 1 h in 0.3% polyethylenimine to reduce non-specific binding). Filters were transferred to scintillation vials and 5 ml of Scintisafe (VWR, Brisbane, Calif.) was added. The amount of radioactivity retained on the filters was determined by liquid scintillation spectrometry. Protein determinations were by the method of Bradford (1976. Anal. Biochem. 72:248) using bovine serum albumin as the standard.
row,Compound,Ki
1,"(3R)-3-({9-[(5S,2R,3R)-3-hydroxy-5-(hydroxymethyl)oxolan-2-yl]purin-6-yl}amino)pyrrolidinyl 4-(trifluoromethyl)phenyl ketone [CVT 4610]",> 5 µM
2,"OC[C@@H]1C[C@@H](O)[C@H](n2cnc3c(N[C@@H]4CCOC4)ncnc32)O1 [CVT 3454, 2-{6-[((3R)oxolan-3-yl)amino]purin-9-yl}(5S,2R,3R)-5-(hydroxymethyl)oxolan-3-ol]",1 µM
3,"(3R)-3-({9-[(5S,2R,3R)-3-hydroxy-5-(hydroxymethyl)oxolan-2-yl]purin-6-yl}amino)pyrrolidinyl 4-ethylphenyl ketone [CVT 4611]",> 5 µM
4,"O=S(=O)(c1ccccc1)N1CC[C@@H](Nc2ncnc3c2ncn3[C@@H]2O[C@H](CO)C[C@H]2O)C1 [CVT 4629, (3R)-3-({9-[(5S,2R,3R)-3-hydroxy-5-(hydroxymethyl)oxolan-2-yl]purin-6-yl}amino)-1-(phenylsulfonyl)pyrrolidine]",> 5 µM
5,"OC[C@@H]1C[C@@H](O)[C@H](n2cnc3c(N[C@@H]4CCCC4O)nc(Cl)nc32)O1 (stereo partly drawn) [CVT 4626, 2-{6-[((1R)-2-hydroxycyclopentyl)amino]-2-chloropurin-9-yl}(5S,2R,3R)-5-(hydroxymethyl)oxolan-3-ol]",4.01 µM and 3.5 µM
6,"OC[C@@H]1C[C@@H](O)[C@H](n2cnc3c(N[C@H]4CCC[C@@H]4O)ncnc32)O1 [CVT 4625, (5S,2R,3R)-2-{6-[((1S,2S)-2-hydroxycyclopentyl)amino]purin-9-yl}-5-(hydroxymethyl)oxolan-3-ol]",4.09 µM and 3.69 µM
7,"(3R)-3-({9-[(5S,2R,3R)-3-hydroxy-5-(hydroxymethyl)oxolan-2-yl]purin-6-yl}amino)pyrrolidinyl 4-fluorophenyl ketone [CVT 4607]",> 5 µM
8,"(3R)-3-({9-[(5S,2R,3R)-3-hydroxy-5-(hydroxymethyl)oxolan-2-yl]purin-6-yl}amino)pyrrolidinyl naphthyl ketone [CVT 4627]",1.91 µM and 2.56 µM
9,"(3R)-3-({9-[(5S,2R,3R)-3-hydroxy-5-(hydroxymethyl)oxolan-2-yl]purin-6-yl}amino)pyrrolidinyl 3-fluorophenyl ketone [CVT 4613]",> 5 µM
10,"1-[(3R)-3-({9-[(5S,2R,3R)-3-hydroxy-5-(hydroxymethyl)oxolan-2-yl]purin-6-yl}amino)pyrrolidinyl]-2-methylpropan-1-one [CVT 4614]",> 5 µM
11,"4-{[(3R)-3-({9-[(5S,2R,3R)-3-hydroxy-5-(hydroxymethyl)oxolan-2-yl]purin-6-yl}amino)pyrrolidinyl]carbonyl}benzenecarbonitrile [CVT 4608]",> 5 µM
12,"(3R)-3-({9-[(5S,2R,3R)-3-hydroxy-5-(hydroxymethyl)oxolan-2-yl]purin-6-yl}amino)pyrrolidinyl 2-naphthyl ketone [CVT 4612]",> 5 µM
13,"(3R)-3-({9-[(5S,2R,3R)-3-hydroxy-5-(hydroxymethyl)oxolan-2-yl]purin-6-yl}amino)pyrrolidinyl 2-fluorophenyl ketone [CVT 4606]",2.84 µM
14,"(3R)-3-({9-[(5S,2R,3R)-3-hydroxy-5-(hydroxymethyl)oxolan-2-yl]purin-6-yl}amino)pyrrolidinyl 4-methoxyphenyl ketone [CVT 4609]",> 5 µM
15,"OC[C@@H]1C[C@@H](O)[C@H](n2cnc3c(N[C@@H]4CCCCC4O)ncnc32)O1 (stereo partly drawn) [CVT 4622, 2-{6-[((1R)-2-hydroxycyclohexyl)amino]purin-9-yl}(5S,2R,3R)-5-(hydroxymethyl)oxolan-3-ol]",4.44 µM and 2.94 µM
16,OC[C@@H]1C[C@@H](O)[C@H](n2cnc3c(N[C@H]4CC[C@H](O)CC4)ncnc32)O1,> 5 µM
17,"CC(=O)N1CC[C@@H](Nc2ncnc3c2ncn3[C@@H]2O[C@H](CO)C[C@H]2O)C1 [CVT 4617, (3R)-3-({9-[(5S,2R,3R)-3-hydroxy-5-(hydroxymethyl)oxolan-2-yl]purin-6-yl}amino)-1-acetylpyrrolidine]",> 5 µM

# System: not given
# Assay: not given
# Settings: cited from earlier work
row,Compound,half-life
1,"Nc1ncnc2c1ncn2[C@@H]1O[C@H](CO)[C@@H](O)[C@H]1O [adenosine, Adenosine]",less than 10 sec
